Measurements taken from patent publication US20200069664A1, “METHODS FOR TREATING INFECTION” (Salix Pharmaceuticals, Ltd, priority 2010, published 2020).
≈ marks a conversion by molar mass, not a printed value. Read-outs that look alike come from different tables or passages of the source.

Key:
EAEC strain O42 = type: cell-based, E. coli
EAEC = test: Effect of dialyzed supernatants of treated HEp-2 cells on EAEC adherence; type: cell-based, E. coli; conditions: HEp-2 treated 24 h with 64 mg/ml (so in the source); chambered slides with or without HEp-2 cells, 3 h
Experimental: Supernatant dialysis. HEp-2 cells were cultured in T-175 flasks as described above. […] After 24 h, the medium was collected, loaded into regenerated cellulose dialysis tubing (cutoff, 6 to 8 kDa; Spectra/Por, Rancho Domiguez, Calif.), and dialyzed against 4 liters of PBS changed four times. Each dialysis step lasted at least 6 h and was carried out at 4° C. Dialyzed supernatants were either used immediately in adherence assays or stored at −20° C. until use.
The effect of supernatants on EAEC adherence was determined by mixing EAEC with the dialyzed media from the different antibiotic (or control) treatment groups and adding the bacteria to HEp-2 cells cultured in chambered slides or to chambered slides with no HEp-2 cells. Adherence was visualized microscopically as described above.

HEp-2 cells = test: Cytokine array of supernatants of treated HEp-2 cells; conditions: 64 μg/ml, 24 h; Panomics array of 36 cytokines
C difficile isolates = test: In vitro susceptibility of C difficile isolates (agar dilution for rifaximin, Etest for rifampin)

## CO[C@H]1/C=C/O[C@@]2(C)Oc3c(C)c(O)c4c(O)c(c(/C=N/N5CCN(C)CC5)c(O)c4c3C2=O)NC(=O)/C(C)=C\C=C\[C@H](C)[C@H](O)[C@@H](C)[C@@H](O)[C@@H](C)[C@H](OC(C)=O)[C@@H]1C [Rifampin, rifampin]
EAEC strain O42
  EAEC O42 adherence to pretreated HEp-2 cells (microscopy, stacked-brick pattern): adhered in the traditional stacked-brick formation
EAEC
  Adherence of EAEC mixed with dialyzed supernatants from treated HEp-2 cells: adhered to chambers independently of the presence of HEp-2 cells
HEp-2 cells
  Cytokines detected in supernatants of treated HEp-2 cells: same profile, except that MIPS was not detected
C difficile isolates
  MIC50: < 0.002 µg/mL
  MIC90: 4 µg/mL (≈ 4.86 µM)
C difficile isolates; 359 C difficile isolates
  MIC50: <0.002 µg/mL
C difficile isolates; resistance = MIC≥32 μg/mL, for rifaximin b194 says 'rifaximin alone'
  Resistant isolates, percent of 359: 8%
